Test results as given in patent US20140005163A1 (NOVARTIS AG, priority 2010, published 2014).

How the values were obtained:
PI3K alpha = molecular target: T1, PI3K alpha (Homo sapiens, UniProt P42336); assay: PI3K alpha kinase assay (Kinase-Glo luminescence); assay type: biochemical
T1 construct: p85(iSH2) fusion partner (see partner chain) (N); His tag (C); made in house; host or cells: baculovirus; Tn5 (Trichoplusia ni) or TiniPro insect cells
How it was run: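 IC50 is taken from a four-parameter logistic fit of 8-point dilutions, with Kinase-Glo luminescence reporting residual ATP. Reactions ran 60 min at room temperature in TRIS pH 7.5 buffer with MgCl2, NaCl, CHAPS and DTT. Final levels were 10 nM enzyme, 1 μM ATP and 10 μg/mL PI.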

[1] = test system: PKB Ser473 phosphorylation in Rat1-myr-HA-p110 alpha cells; assay: Reverse protein array assay, PKB Ser473 phosphorylation in Rat1-myr-p110 alpha cells; assay type: cell-based; conditions: 0.5 h, pAkt Ser473, 30 minutes compound incubation, read-out: p-PKB IC50
How it was run: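 Cells: Rat1-myr-HA-p110 alpha/beta/delta, seeded ≥20 h. Lysis on ice 10 min; reverse-phase protein array, 4 lysate dilutions; fluorescence read, relative intensity.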

PI3K delta = molecular target: T2, PI3K delta (Homo sapiens, UniProt O00329); assay: PI3K delta kinase assay (Kinase-Glo luminescence); assay type: biochemical
T2 construct: for the full-length p110-d subunit are generated and fused by overlapping PCR; p85(iSH2) fusion partner (see partner chain) (N); His tag (C); made in house; host or cells: baculovirus; Tn5 (Trichoplusia ni) or TiniPro insect cells
T2 sequence (O00329 with tags, fused parts or gaps limits assumed): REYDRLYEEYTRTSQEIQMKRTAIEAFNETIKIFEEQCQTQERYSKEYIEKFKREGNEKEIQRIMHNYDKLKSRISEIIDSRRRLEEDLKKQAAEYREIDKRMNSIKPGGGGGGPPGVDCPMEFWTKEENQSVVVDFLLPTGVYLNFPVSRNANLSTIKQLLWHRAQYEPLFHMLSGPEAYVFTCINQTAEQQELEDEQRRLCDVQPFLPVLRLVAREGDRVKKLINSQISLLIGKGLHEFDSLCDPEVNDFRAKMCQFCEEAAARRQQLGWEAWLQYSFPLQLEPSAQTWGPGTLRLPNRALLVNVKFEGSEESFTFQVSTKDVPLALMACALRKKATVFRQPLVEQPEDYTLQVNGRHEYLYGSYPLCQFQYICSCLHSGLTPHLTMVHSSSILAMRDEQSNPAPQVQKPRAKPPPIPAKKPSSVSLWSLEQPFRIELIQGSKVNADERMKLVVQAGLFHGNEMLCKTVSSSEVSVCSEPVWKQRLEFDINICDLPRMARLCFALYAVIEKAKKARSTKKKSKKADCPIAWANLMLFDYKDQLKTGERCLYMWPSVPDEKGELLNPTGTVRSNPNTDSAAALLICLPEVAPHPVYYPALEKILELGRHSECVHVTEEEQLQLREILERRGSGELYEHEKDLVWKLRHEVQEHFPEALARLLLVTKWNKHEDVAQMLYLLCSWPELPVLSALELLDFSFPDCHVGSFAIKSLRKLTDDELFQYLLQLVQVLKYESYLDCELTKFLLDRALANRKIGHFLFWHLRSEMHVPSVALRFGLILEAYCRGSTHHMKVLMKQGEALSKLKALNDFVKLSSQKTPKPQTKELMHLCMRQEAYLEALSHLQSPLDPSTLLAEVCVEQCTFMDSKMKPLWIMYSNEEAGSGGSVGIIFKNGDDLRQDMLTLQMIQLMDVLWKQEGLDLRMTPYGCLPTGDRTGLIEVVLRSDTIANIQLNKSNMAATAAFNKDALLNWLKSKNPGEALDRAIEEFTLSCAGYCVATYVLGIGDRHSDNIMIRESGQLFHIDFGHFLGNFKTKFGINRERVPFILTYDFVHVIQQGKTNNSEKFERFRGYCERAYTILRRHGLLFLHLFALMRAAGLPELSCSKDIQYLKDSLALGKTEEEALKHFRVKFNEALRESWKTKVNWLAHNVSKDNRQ
How it was run: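 ATP depletion was measured by Kinase-Glo luminescence after a 60-minute room-temperature reaction containing 1 μM ATP, 10 μg/mL PI and 10 nM His-tagged p85(iSH2)-linker-p110δ (BV-1060). Buffer: Tris pH 7.5, 3 mM MgCl2, 50 mM NaCl, 0.05% CHAPS, 1 mM DTT. IC50 values came from four-parameter fits over eight concentrations.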

T1 sequence (P42336 with tags, fused parts or gaps limits assumed): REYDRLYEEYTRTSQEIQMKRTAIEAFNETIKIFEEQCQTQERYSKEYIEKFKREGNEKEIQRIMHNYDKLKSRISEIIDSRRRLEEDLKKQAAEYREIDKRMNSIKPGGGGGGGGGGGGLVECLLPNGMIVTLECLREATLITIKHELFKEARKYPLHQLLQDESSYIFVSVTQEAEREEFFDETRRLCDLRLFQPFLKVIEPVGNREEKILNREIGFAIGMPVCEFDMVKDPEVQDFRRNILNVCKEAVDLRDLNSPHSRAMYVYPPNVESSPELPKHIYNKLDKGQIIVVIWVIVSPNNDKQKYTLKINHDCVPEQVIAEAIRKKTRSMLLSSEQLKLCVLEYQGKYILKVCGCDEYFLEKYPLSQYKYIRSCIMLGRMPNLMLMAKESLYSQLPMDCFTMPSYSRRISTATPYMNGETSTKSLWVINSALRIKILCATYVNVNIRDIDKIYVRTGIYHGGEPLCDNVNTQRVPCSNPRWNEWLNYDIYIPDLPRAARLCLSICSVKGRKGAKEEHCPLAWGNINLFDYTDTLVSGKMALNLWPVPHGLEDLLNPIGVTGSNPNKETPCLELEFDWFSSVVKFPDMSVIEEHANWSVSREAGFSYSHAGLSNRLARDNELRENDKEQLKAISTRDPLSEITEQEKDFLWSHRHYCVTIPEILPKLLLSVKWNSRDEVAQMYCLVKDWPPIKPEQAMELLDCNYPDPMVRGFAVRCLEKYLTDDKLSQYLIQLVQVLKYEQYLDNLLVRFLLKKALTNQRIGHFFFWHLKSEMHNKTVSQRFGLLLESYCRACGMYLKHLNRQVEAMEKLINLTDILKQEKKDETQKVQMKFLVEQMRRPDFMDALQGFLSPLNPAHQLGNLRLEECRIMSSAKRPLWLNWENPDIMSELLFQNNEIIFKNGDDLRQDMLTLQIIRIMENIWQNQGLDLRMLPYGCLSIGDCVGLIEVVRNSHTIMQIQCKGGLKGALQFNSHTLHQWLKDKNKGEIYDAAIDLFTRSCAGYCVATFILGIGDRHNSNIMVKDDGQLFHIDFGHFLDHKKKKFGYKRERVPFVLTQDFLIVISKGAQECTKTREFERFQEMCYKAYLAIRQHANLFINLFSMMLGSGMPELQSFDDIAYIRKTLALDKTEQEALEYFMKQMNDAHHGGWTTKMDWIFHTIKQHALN

Structure (SMILES): CCNc1cc(-c2ccc3ncc4c(c3c2)n(-c2cn(CC)nc2C)c(=O)n4C)cnc1COC [Example 157, 8-(5-Ethylamino-6-methoxymethyl-pyridin-3-yl)-1-(1-ethyl-3-methyl-1H-pyrazol-4-yl)-3-methyl-1,3-dihydro-imidazo[4,5-c]quinolin-2-one]
- IC50 (PI3K alpha): 7 nM
- IC50 [1]: < 5 nM
- IC50 (PI3K delta): 9 nM

Structure (SMILES): CCNc1cc(-c2ccc3ncc4c(c3c2)n(-c2cn(C)nc2C)c(=O)n4C)cnc1CC [Example 161, 1-(1,3-Dimethyl-1H-pyrazol-4-yl)-8-(6-ethyl-5-ethylamino-pyridin-3-yl)-3-methyl-1,3-dihydro-imidazo[4,5-c]quinolin-2-one]
- IC50 (PI3K alpha): 9 nM
- IC50 [1]: < 5 nM
- IC50 (PI3K delta): 8 nM

Structure (SMILES): CCc1ncc(-c2ccc3ncc4c(c3c2)n(-c2cn(C)nc2C)c(=O)n4C)cc1NC(C)C [Example 162, 1-(1,3-Dimethyl-1H-pyrazol-4-yl)-8-(6-ethyl-5-isopropylamino-pyridin-3-yl)-3-methyl-1,3-dihydro-imidazo[4,5-c]quinolin-2-one]
- IC50 (PI3K alpha): 8 nM
- IC50 [1]: < 5 nM
- IC50 (PI3K delta): 10 nM

Structure (SMILES): CCOCc1cc(-c2ccc3ncc4c(c3c2)n(-c2cn(C)nc2C)c(=O)n4C)cnc1N [Example 166.1, 8-(6-Amino-5-ethoxymethyl-pyridin-3-yl)-1-(1,3-dimethyl-1H-pyrazol-4-yl)-3-methyl-1,3-dihydro-imidazo[4,5-c]quinolin-2-one]
- IC50 (PI3K alpha): 9 nM
- IC50 [1]: 22 nM
- IC50 (PI3K delta): 3 nM

Structure (SMILES): Cn1cc(-n2c(=O)n(C)c3cnc4ccc(-c5cnc(N)c(CO)c5)cc4c32)c(Cl)n1 [Example 169.3, 8-(6-Amino-5-hydroxymethyl-pyridin-3-yl)-1-(3-chloro-1-methyl-1H-pyrazol-4-yl)-3-methyl-1,3-dihydro-imidazo[4,5-c]quinolin-2-one]
- IC50 (PI3K alpha): 5 nM
- IC50 [1]: 19 nM
- IC50 (PI3K delta): < 3 nM

Structure (SMILES): Cc1nn(CCO)cc1-n1c(=O)n(C)c2cnc3ccc(-c4cncc(N5CCOCC5)c4)cc3c21 [Example 175.3, 1-[1-(2-Hydroxy-ethyl)-3-methyl-1H-pyrazol-4-yl]-3-methyl-8-(5-morpholin-4-yl-pyridin-3-yl)-1,3-dihydro-imidazo[4,5-c]quinolin-2-one]
- IC50 (PI3K alpha): 44 nM
- IC50 [1]: 344 nM
- IC50 (PI3K delta): 126 nM

Structure (SMILES): CCN(C)c1cncc(-c2ccc3ncc4c(c3c2)n(-c2cn(C)nc2C)c(=O)n4C)c1 [Example 176, 1-(1,3-Dimethyl-1H-pyrazol-4-yl)-8-[5-(ethyl-methyl-amino)-pyridin-3-yl]-3-methyl-1,3-dihydro-imidazo[4,5-c]quinolin-2-one]
- IC50 (PI3K alpha): 17 nM
- IC50 [1]: < 5 nM
- IC50 (PI3K delta): 15 nM

Structure (SMILES): Cc1nn(C)cc1-n1c(=O)n(C)c2cnc3ccc(-c4cncc(OC(F)F)c4)cc3c21 [Example 183, 8-(5-Difluoromethoxy-pyridin-3-yl)-1-(1,3-dimethyl-1H-pyrazol-4-yl)-3-methyl-1,3-dihydro-imidazo[4,5-c]quinolin-2-one]
- IC50 (PI3K alpha): 3 nM
- IC50 [1]: 23 nM
- IC50 (PI3K delta): 4 nM

Structure (SMILES): COc1cc(-c2ccc3ncc4c(c3c2)n(-c2cn(C)nc2C)c(=O)n4C)cnc1C [Example 184, 1-(1,3-Dimethyl-1H-pyrazol-4-yl)-8-(5-methoxy-6-methyl-pyridin-3-yl)-3-methyl-1,3-dihydro-imidazo[4,5-c]quinolin-2-one]
- IC50 (PI3K alpha): 4 nM
- IC50 [1]: 5 nM
- IC50 (PI3K delta): 4 nM

Structure (SMILES): Cc1nn(CC(=O)N2CCC2)cc1-n1c(=O)n(C)c2cnc3ccc(-c4cncc(OC(C)C)c4)cc3c21 [Example 205, 1-[1-(2-Azetidin-1-yl-2-oxo-ethyl)-3-methyl-1H-pyrazol-4-yl]-8-(5-isopropoxy-pyridin-3-yl)-3-methyl-1,3-dihydro-imidazo[4,5-c]quinolin-2-one]
- IC50 (PI3K alpha): 5 nM
- IC50 [1]: 76 nM
- IC50 (PI3K delta): 12 nM

Structure (SMILES): Cc1nn(C)cc1-n1c(=O)[nH]c2cnc3ccc(-c4cnc(N(C)C)nc4)cc3c21 [Example 207, 8-(2-Dimethylamino-pyrimidin-5-yl)-1-(1,3-dimethyl-1H-pyrazol-4-yl)-1,3-dihydro-imidazo[4,5-c]quinolin-2-one]
- IC50 (PI3K alpha): 14 nM
- IC50 [1]: 65 nM
- IC50 (PI3K delta): 29 nM

Structure (SMILES): CCNc1cc(-c2ccc3ncc4c(c3c2)n(-c2c(C)nn(CCO)c2C)c(=O)n4C)cnc1C [Example 210, 8-(5-Ethylamino-6-methyl-pyridin-3-yl)-1-[1-(2-hydroxy-ethyl)-3,5-dimethyl-1H-pyrazol-4-yl]-3-methyl-1,3-dihydro-imidazo[4,5-c]quinolin-2-one]
- IC50 (PI3K alpha): 24 nM
- IC50 [1]: 57 nM
- IC50 (PI3K delta): 13 nM

Structure (SMILES): CCOc1cc(-c2ccc3ncc4c(c3c2)n(-c2cn(CCO)nc2C)c(=O)n4C)cnc1C [Example 211.2, 8-(5-Ethoxy-6-methyl-pyridin-3-yl)-1-[1-(2-hydroxy-ethyl)-3-methyl-1H-pyrazol-4-yl]-3-methyl-1,3-dihydro-imidazo[4,5-c]quinolin-2-one]
- IC50 (PI3K alpha): 6 nM
- IC50 [1]: 8 nM
- IC50 (PI3K delta): 9 nM

Structure (SMILES): Cc1nn(C)cc1-n1c(=O)n(C)c2cnc3ccc(-c4ccc(N5CC[C@@H](O)C5)nc4)cc3c21 [Example 212.1, 1-(1,3-Dimethyl-1H-pyrazol-4-yl)-8-[6-((R)-3-hydroxy-pyrrolidin-1-yl)-pyridin-3-yl]-3-methyl-1,3-dihydro-imidazo[4,5-c]quinolin-2-one]
- IC50 (PI3K alpha): 53 nM
- IC50 [1]: 135 nM
- IC50 (PI3K delta): 111 nM

Structure (SMILES): CCn1cc(-n2c(=O)n(C)c3cnc4ccc(-c5cncc(C(C)(C)O)c5)cc4c32)c(C)n1 [Example 215.4, 1-(1-Ethyl-3-methyl-1H-pyrazol-4-yl)-8-[5-(1-hydroxy-1-methyl-ethyl)-pyridin-3-yl]-3-methyl-1,3-dihydro-imidazo[4,5-c]quinolin-2-one]
- IC50 (PI3K alpha): 6 nM
- IC50 [1]: 20 nM
- IC50 (PI3K delta): 10 nM

Structure (SMILES): CNC(=O)c1cc(-c2ccc3ncc4c(c3c2)n(-c2cn(C)nc2C)c(=O)n4C)cnc1N [Example 224.1, 2-Amino-5-[1-(1,3-dimethyl-1H-pyrazol-4-yl)-3-methyl-2-oxo-2,3-dihydro-1H-imidazo[4,5-c]quinolin-8-yl]-N-methyl-nicotinamide]
- IC50 (PI3K alpha): 15 nM
- IC50 [1]: 19 nM
- IC50 (PI3K delta): 29 nM

Structure (SMILES): Cc1nn(C)cc1-n1c(=O)n(C)c2cnc3ccc(-c4cnc5c(c4)C(C)(C)C(=O)N5C)cc3c21 [Example 233, 1-(1,3-Dimethyl-1H-pyrazol-4-yl)-3-methyl-8-(1,3,3-trimethyl-2-oxo-2,3-dihydro-1H-pyrrolo[2,3-b]pyridin-5-yl)-1,3-dihydro-imidazo[4,5-c]quinolin-2-one]
- IC50 (PI3K alpha): 22 nM
- IC50 [1]: 26 nM
- IC50 (PI3K delta): 15 nM

Structure (SMILES): COC(C)(C)c1cncc(-c2ccc3ncc4c(c3c2)n(-c2cn(C)nc2C)c(=O)n4C)c1 [Example 239, 1-(1,3-Dimethyl-1H-pyrazol-4-yl)-8-[5-(1-methoxy-1-methyl-ethyl)-pyridin-3-yl]-3-methyl-1,3-dihydro-imidazo[4,5-c]quinolin-2-one]
- IC50 (PI3K alpha): 10 nM
- IC50 [1]: 28 nM
- IC50 (PI3K delta): 3 nM

Structure (SMILES): CCNC(=O)c1cc(-c2ccc3ncc4c(c3c2)n(-c2cn(C)nc2C)c(=O)n4C)cnc1NC [Example 242.1, 5-[1-(1,3-Dimethyl-1H-pyrazol-4-yl)-3-methyl-2-oxo-2,3-dihydro-1H-imidazo[4,5-c]quinolin-8-yl]-N-ethyl-2-methylamino-nicotinamide]
- IC50 (PI3K alpha): 23 nM
- IC50 [1]: 45 nM
- IC50 (PI3K delta): 10 nM
